For this series, the system named is CCRIS mutagenicity, Ames/micronucleus/aberration tests. As to the kind of experiment: CCRIS mutagenicity studies.
[1] abbreviates: Test System: AMES SALMONELLA TYPHIMURIUM, Strain/Indicator: TA98, Metabolic Activation: NONE, Method: STANDARD PLATE.
The mark [2] stands for this setting: Test System: AMES SALMONELLA TYPHIMURIUM, Strain/Indicator: TA100, Metabolic Activation: NONE, Method: STANDARD PLATE.
The mark [3] stands for this setting: Test System: AMES SALMONELLA TYPHIMURIUM, Strain/Indicator: TA100, Metabolic Activation: NONE, Method: PREINCUBATION

The source made the active and inactive calls. No rule for the calls is given here.

In the case of `IC(I)I`, the mutagenic call is, setting by setting: (End Point: IN VITRO CHROMOSOMAL ABERRATIONS, Test System: SYRIAN HAMSTER EMBRYO (SHE) CELLS, Metabolic Activation: NONE) “inactive; negative; toxicity at 160 and 240 um”; (End Point: IN VITRO CHROMOSOMAL ABERRATIONS, Test System: SYRIAN HAMSTER EMBRYO (SHE) CELLS, Metabolic Activation: RAT, LIVER, S-9) “inactive; negative”; (End Point: In vitro chromosomal aberrations, Test System: D824 human dental pulp cells, Metabolic Activation: None) “active; positive (structural changes and ploidy)”.
Turning to `C[C@H]1CC[C@@H]2[C@@H](C)[C@H]3[C@H](C[C@H]4[C@@H]5CC=C6C[C@@H](O[C@@H]7O[C@H](CO)[C@@H](O[C@@H]8O[C@@H](C)[C@H](O)[C@@H](O)[C@H]8O)[C@H](O)[C@H]7O[C@@H]7O[C@@H](C)[C@H](O)[C@@H](O)[C@H]7O)CC[C@]6(C)[C@H]5CC[C@]34C)N2C1`, the mutagenic call by setting is: under setting [1], “inactive; negative”; (Test System: AMES SALMONELLA TYPHIMURIUM, Strain/Indicator: TA98, Metabolic Activation: S-9, Method: STANDARD PLATE) “inactive; negative”; under setting [2], “inactive; negative”; (Test System: AMES SALMONELLA TYPHIMURIUM, Strain/Indicator: TA100, Metabolic Activation: S-9, Method: STANDARD PLATE) “inactive; negative”.
For the compound `OC1C=Cc2c(ccc3c2-c2cccc4cccc-3c24)C1O` (configuration not stated), the mutagenic call is, setting by setting: (Test System: AMES SALMONELLA TYPHIMURIUM, Strain/Indicator: TA97A, Metabolic Activation: NONE, Method: PREINCUBATION) “inactive; negative”; (Test System: AMES SALMONELLA TYPHIMURIUM, Strain/Indicator: TA97A, Metabolic Activation: RAT, LIVER, S-9, AROCLOR 1254, Method: PREINCUBATION) “active; positive”; (Test System: AMES SALMONELLA TYPHIMURIUM, Strain/Indicator: TA98, Metabolic Activation: NONE, Method: PREINCUBATION) “inactive; negative”; (Test System: AMES SALMONELLA TYPHIMURIUM, Strain/Indicator: TA98, Metabolic Activation: RAT, LIVER, S-9, AROCLOR 1254, Method: PREINCUBATION) “active; positive”; under setting [3], “inactive; negative”; (Test System: AMES SALMONELLA TYPHIMURIUM, Strain/Indicator: TA100, Metabolic Activation: RAT, LIVER, S-9, AROCLOR 1254, Method: PREINCUBATION) “active; positive”.
`Cc1c2ccc(CO)cc2nc2c1ccc1ccccc12`: the mutagenic call (Test System: AMES SALMONELLA TYPHIMURIUM, Strain/Indicator: TA100, Metabolic Activation: RAT, LIVER, S-9, AROCLOR 1254, Method: STANDARD PLATE) is “active; positive”.
On to `[O]=[Mg]`, for which the mutagenic call is “inactive; negative” (Test System: AMES SALMONELLA TYPHIMURIUM, Strain/Indicator: TA97, Metabolic Activation: NONE, Method: PREINCUBATION); “inactive; negative” (Test System: AMES SALMONELLA TYPHIMURIUM, Strain/Indicator: TA97, Metabolic Activation: S-9, Method: PREINCUBATION); “inactive; negative” under setting [3]; “inactive; negative” (Test System: AMES SALMONELLA TYPHIMURIUM, Strain/Indicator: TA100, Metabolic Activation: RAT, LIVER, S-9, Method: PREINCUBATION); “inactive; negative” (Test System: AMES SALMONELLA TYPHIMURIUM, Strain/Indicator: TA102, Metabolic Activation: NONE, Method: PREINCUBATION); “inactive; negative” (Test System: AMES SALMONELLA TYPHIMURIUM, Strain/Indicator: TA102, Metabolic Activation: S-9, Method: PREINCUBATION).
With `Clc1ccc(C(c2ccccc2Cl)C(Cl)Cl)cc1` (configuration not stated), the mutagenic call was “inactive; negative” (End Point: IN VITRO CHROMOSOMAL ABERRATIONS, Test System: CHINESE HAMSTER OVARY CELLS, Metabolic Activation: NONE); “inactive; negative” (End Point: IN VITRO CHROMOSOMAL ABERRATIONS, Test System: CHINESE HAMSTER OVARY CELLS, Metabolic Activation: RAT, LIVER, S-9, AROCLOR 1254); “inactive; negative” (Test System: AMES SALMONELLA TYPHIMURIUM, Strain/Indicator: TA98, Metabolic Activation: MOUSE, LIVER, S-9, Method: STANDARD PLATE); “inactive; negative” under setting [1]; “inactive; negative” (Test System: AMES SALMONELLA TYPHIMURIUM, Strain/Indicator: TA98, Metabolic Activation: RAT, LIVER, S-9, Method: STANDARD PLATE); “inactive; negative” (Test System: AMES SALMONELLA TYPHIMURIUM, Strain/Indicator: TA100, Metabolic Activation: MOUSE, LUNG, S-9, Method: STANDARD PLATE). The mutagenic call is “inactive; negative” under setting [2]; “inactive; negative” (Test System: AMES SALMONELLA TYPHIMURIUM, Strain/Indicator: TA100, Metabolic Activation: RAT, LIVER, S-9, Method: STANDARD PLATE); “inactive; negative” (Test System: UDS RODENT HEPATOCYTES, Strain/Indicator: THY INCORP (NON-S-PHASE), Metabolic Activation: NONE, Method: LIQUID SCINTILLATION COUNTING); “active; positive” (Test System: UDS RODENT LUNG CELLS, Strain/Indicator: THY INCORP (NON-S-PHASE), Metabolic Activation: NONE, Method: LIQUID SCINTILLATION COUNTING).
Regarding `c1ccc2c(CC3CO3)cccc2c1` (configuration not stated), the mutagenic call was “active; positive” under setting [3]; “active; positive” under setting [2]; “active; positive” (Test System: AMES SALMONELLA TYPHIMURIUM, Strain/Indicator: TA104, Metabolic Activation: NONE, Method: STANDARD PLATE); “active; positive” (Test System: AMES SALMONELLA TYPHIMURIUM, Strain/Indicator: TA1535, Metabolic Activation: NONE, Method: PREINCUBATION); “active; positive” (Test System: AMES SALMONELLA TYPHIMURIUM, Strain/Indicator: TA1535, Metabolic Activation: NONE, Method: STANDARD PLATE); “active; positive” (Test System: AMES SALMONELLA TYPHIMURIUM, Strain/Indicator: TA4001, Metabolic Activation: NONE, Method: STANDARD PLATE). Moreover, the mutagenic call (Test System: AMES SALMONELLA TYPHIMURIUM, Strain/Indicator: TA4006, Metabolic Activation: NONE, Method: STANDARD PLATE) is “active; positive”.

(Values after PubChem BioAssay AID1259407 (Chemical Carcinogenesis Research Information System (CCRIS), 2018).)
